Test [1] has as its target T1, Glutamate receptor 2 (Rattus norvegicus, UniProt P19491). In words: Displacement of [3H]AMPA from rat recombinant GluR2(R) RNA-edited flop isoform expressed in baculovirus infected Sf9 cells.
The target in test [2] is T2, Glutamate receptor 1 (Rattus norvegicus, UniProt P19490). The test is described as follows: Agonist activity at rat recombinant GluR1 flip isoform expressed in HEK293 cells assessed as increase in intracellular calcium level by Fluo-4/AM assay. The test is classed as functional, cell-based.
For test [3], the target named is T3, Glutamate receptor 4 (Rattus norvegicus, UniProt P19493). The test is described as follows: Displacement of [3H]AMPA from rat recombinant GluR4 flop isoform expressed in baculovirus infected Sf9 cells. (In general: In a radioligand displacement assay an active substance lowers the binding of a labelled ligand.)
The target in test [4] is Glutamate NMDA receptor. The test is described as follows: Displacement of […] from NMDA receptor in rat cortical synaptosomes. The test is classed as subcellular, Brain.
Test [5] addresses T1, Glutamate receptor 2.
Description: Agonist activity at rat recombinant GluR2(Q) RNA-edited isoform expressed in HEK293 cells assessed as increase in intracellular calcium level by Fluo-4/AM assay
Test [6] deals with T4, Glutamate receptor 3 (Rattus norvegicus, UniProt P19492). The test is described as follows: Displacement of [3H]AMPA from rat recombinant GluR3 flop isoform expressed in baculovirus infected Sf9 cells.
In test [7] the target is T4, Glutamate receptor 3. The test is described as follows: Agonist activity at rat recombinant GluR3 flip isomer expressed in HEK293 cells assessed as increase in intracellular calcium level by Fluo-4/AM assay. The format is functional, cell-based. A general note: Calcium flux is commonly read through the fluorescence of an indicator in the cells.
Test [8] has as its target T2, Glutamate receptor 1. In words: Displacement of [3H]AMPA from rat recombinant GluR1 flop isoform expressed in baculovirus infected Sf9 cells.
Test [9] deals with T2, Glutamate receptor 1. The test is described as follows: Agonist activity at ConA-treated rat GluR1 flip isoform expressed in Xenopus laevis oocytes assessed as glutamic acid-induced maximal current by two-electrode voltage clamp method. The format is functional, cell-based, Oocyte.
The target in test [10] is T5, Glutamate receptor ionotropic, kainate 2 (Rattus norvegicus, UniProt P42260). In words: Agonist activity at rat recombinant GluR6(Q) RNA-edited isoform expressed in HEK293 cells assessed as increase in intracellular calcium level by Fluo-4/AM assay. The test is classed as functional, cell-based.
Test [11] concerns the target T6, Glutamate receptor ionotropic, kainate 1 (Rattus norvegicus, UniProt P22756).
Description: Agonist activity at rat recombinant GluR5(Q) RNA-edited isoform expressed in HEK293 cells assessed as increase in intracellular calcium level by Fluo-4/AM assay
For test [12], the target named is Glutamate receptor 4 (Rattus norvegicus) (UniProt P19493). In words: Agonist activity at rat recombinant GluR4 flip isomer expressed in HEK293 cells assessed as increase in intracellular calcium level by Fluo-4/AM assay relative to glutamic acid. The test is classed as functional, cell-based.
Test [13] in a line: Displacement of [3H]AMPA from AMPA receptor in rat cortical synaptosomes. The test is classed as subcellular, Brain.
In test [14] the target is Glutamate NMDA receptor; Grin1/Grin2a (Rattus norvegicus, UniProt P35439+Q00959). The test is described as follows: Agonist activity at ConA-treated rat NR1/NR2A expressed in Xenopus laevis oocytes assessed as glycine-induced maximal current by two-electrode voltage clamp method. The format is functional, cell-based, Oocyte. (In general: Two-electrode voltage clamp is typically applied to oocytes expressing channels or transporters.)

Test [15] deals with Glutamate receptor 3 (Rattus norvegicus) (UniProt P19492). In words: Agonist activity at rat recombinant GluR3 flip isomer expressed in HEK293 cells assessed as increase in intracellular calcium level by Fluo-4/AM assay relative to glutamic acid. The test is classed as functional, cell-based.
Test [16] has as its target Glutamate receptor ionotropic, kainate 3 (Rattus norvegicus, UniProt P42264). The test is described as follows: Displacement of [3H]SYM from rat recombinant GluR7A expressed in baculovirus infected Sf9 cells.
Test [17] can be described thus: Displacement of [3H]KA from KA receptor in rat cortical synaptosomes. The format is subcellular, Brain.
Test [18] concerns the target T6, Glutamate receptor ionotropic, kainate 1. In words: Displacement of [3H]SYM from rat recombinant GluR5(Q) RNA-edited isoform expressed in baculovirus infected Sf9 cells.
Test [19] shares this target. The test is described as follows: Agonist activity at ConA-treated rat GluR5(Q) RNA-edited isoform expressed in Xenopus laevis oocytes assessed as glutamic acid-induced maximal current by two-electrode voltage clamp method. The test is classed as functional, cell-based, Oocyte.
The target of test [20] is Glutamate NMDA receptor. In words: Displacement of [3H]CGP from NMDA receptor in rat cortical synaptosomes. The format is subcellular, Brain.
Test [21] deals with T3, Glutamate receptor 4. The test is described as follows: Agonist activity at rat recombinant GluR4 flip isomer expressed in HEK293 cells assessed as increase in intracellular calcium level by Fluo-4/AM assay. The test is classed as functional, cell-based.
Test [22] has as its target Glutamate receptor 1 (Rattus norvegicus) (UniProt P19490). In words: Agonist activity at rat recombinant GluR1 flip isoform expressed in HEK293 cells assessed as increase in intracellular calcium level by Fluo-4/AM assay relative to glutamic acid. The format is functional, cell-based.
The target in test [23] is T5, Glutamate receptor ionotropic, kainate 2. The test is described as follows: Displacement of [3H]KA from rat recombinant GluR6(VCR) RNA-edited isoform expressed in baculovirus infected Sf9 cells.

Bounds are passed on as bounds.

Sequence of Glutamate receptor 1 (Rattus norvegicus) (P19490 whole entry, canonical isoform): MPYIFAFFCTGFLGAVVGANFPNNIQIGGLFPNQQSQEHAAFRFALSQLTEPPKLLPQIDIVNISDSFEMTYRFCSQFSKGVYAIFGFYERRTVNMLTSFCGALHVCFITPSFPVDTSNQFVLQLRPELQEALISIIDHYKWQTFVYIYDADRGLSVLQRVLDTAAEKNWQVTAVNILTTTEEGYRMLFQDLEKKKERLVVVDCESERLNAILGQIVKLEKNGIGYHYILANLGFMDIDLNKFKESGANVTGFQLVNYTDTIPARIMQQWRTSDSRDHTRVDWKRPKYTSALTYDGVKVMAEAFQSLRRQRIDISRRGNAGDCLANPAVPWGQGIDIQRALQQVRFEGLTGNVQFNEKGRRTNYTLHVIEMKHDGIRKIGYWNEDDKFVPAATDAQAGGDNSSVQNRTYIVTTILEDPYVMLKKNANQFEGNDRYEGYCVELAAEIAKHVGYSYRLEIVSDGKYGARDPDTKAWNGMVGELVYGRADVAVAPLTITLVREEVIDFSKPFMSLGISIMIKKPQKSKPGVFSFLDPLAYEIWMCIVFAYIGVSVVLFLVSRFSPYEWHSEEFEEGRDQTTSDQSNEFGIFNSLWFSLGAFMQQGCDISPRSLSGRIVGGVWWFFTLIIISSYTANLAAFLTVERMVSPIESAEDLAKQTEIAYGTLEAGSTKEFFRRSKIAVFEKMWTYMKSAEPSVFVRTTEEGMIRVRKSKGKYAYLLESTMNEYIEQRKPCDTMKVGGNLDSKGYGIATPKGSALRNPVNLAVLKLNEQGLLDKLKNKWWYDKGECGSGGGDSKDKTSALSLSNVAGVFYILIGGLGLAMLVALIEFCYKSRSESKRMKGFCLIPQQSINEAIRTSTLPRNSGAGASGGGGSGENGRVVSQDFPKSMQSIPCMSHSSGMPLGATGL
T2 sequence (P19490 whole entry, canonical isoform): as above
T4 sequence (P19492 whole entry, canonical isoform): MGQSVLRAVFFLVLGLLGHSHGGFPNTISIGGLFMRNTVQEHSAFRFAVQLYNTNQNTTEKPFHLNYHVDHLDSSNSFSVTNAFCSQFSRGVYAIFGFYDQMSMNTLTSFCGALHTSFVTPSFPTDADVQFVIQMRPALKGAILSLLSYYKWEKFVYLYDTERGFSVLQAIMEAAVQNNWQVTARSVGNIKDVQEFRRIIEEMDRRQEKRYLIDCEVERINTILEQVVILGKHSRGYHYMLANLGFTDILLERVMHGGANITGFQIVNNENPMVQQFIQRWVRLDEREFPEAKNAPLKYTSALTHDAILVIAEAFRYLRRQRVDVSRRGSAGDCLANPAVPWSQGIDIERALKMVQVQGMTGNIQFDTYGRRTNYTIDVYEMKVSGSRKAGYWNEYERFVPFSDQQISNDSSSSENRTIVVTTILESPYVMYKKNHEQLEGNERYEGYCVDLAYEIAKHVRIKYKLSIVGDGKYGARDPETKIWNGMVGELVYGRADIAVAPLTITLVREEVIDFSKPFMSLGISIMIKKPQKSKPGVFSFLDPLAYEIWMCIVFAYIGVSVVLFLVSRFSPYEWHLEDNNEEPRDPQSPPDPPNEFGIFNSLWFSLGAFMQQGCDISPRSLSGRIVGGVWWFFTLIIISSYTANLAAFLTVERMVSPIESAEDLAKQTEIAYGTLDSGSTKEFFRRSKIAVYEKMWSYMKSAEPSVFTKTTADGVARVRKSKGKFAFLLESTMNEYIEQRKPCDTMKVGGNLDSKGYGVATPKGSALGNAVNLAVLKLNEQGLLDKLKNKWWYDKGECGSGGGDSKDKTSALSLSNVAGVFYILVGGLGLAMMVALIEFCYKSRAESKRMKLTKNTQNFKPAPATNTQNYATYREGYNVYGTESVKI
Sequence of Glutamate receptor 3 (Rattus norvegicus) (P19492 whole entry): as the sequence (P19492 whole entry, canonical isoform) above
T1 sequence (P19491 whole entry, canonical isoform): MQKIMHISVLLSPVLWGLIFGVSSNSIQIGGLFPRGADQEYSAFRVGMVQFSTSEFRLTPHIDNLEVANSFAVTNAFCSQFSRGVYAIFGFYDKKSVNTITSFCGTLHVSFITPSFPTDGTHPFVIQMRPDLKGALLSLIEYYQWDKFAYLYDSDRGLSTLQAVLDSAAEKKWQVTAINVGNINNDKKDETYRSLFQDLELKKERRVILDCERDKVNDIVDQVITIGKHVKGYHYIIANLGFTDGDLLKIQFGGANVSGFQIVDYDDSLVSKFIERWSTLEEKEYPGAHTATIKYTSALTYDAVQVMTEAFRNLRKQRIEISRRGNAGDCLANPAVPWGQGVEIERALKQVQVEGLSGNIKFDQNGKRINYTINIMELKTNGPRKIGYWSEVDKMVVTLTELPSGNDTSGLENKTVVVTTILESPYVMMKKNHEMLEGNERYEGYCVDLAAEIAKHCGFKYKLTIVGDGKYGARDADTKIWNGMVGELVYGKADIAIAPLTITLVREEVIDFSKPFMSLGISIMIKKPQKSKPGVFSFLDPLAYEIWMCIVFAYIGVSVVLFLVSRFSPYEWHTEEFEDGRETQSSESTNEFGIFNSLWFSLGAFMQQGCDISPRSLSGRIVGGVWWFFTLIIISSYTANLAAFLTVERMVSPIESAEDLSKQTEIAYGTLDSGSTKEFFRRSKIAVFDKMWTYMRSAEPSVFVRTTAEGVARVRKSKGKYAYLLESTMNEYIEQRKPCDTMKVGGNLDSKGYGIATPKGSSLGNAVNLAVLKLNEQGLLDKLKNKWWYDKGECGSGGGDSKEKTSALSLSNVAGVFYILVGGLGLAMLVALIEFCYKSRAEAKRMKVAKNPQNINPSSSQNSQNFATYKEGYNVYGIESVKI
T6 sequence (P22756 whole entry): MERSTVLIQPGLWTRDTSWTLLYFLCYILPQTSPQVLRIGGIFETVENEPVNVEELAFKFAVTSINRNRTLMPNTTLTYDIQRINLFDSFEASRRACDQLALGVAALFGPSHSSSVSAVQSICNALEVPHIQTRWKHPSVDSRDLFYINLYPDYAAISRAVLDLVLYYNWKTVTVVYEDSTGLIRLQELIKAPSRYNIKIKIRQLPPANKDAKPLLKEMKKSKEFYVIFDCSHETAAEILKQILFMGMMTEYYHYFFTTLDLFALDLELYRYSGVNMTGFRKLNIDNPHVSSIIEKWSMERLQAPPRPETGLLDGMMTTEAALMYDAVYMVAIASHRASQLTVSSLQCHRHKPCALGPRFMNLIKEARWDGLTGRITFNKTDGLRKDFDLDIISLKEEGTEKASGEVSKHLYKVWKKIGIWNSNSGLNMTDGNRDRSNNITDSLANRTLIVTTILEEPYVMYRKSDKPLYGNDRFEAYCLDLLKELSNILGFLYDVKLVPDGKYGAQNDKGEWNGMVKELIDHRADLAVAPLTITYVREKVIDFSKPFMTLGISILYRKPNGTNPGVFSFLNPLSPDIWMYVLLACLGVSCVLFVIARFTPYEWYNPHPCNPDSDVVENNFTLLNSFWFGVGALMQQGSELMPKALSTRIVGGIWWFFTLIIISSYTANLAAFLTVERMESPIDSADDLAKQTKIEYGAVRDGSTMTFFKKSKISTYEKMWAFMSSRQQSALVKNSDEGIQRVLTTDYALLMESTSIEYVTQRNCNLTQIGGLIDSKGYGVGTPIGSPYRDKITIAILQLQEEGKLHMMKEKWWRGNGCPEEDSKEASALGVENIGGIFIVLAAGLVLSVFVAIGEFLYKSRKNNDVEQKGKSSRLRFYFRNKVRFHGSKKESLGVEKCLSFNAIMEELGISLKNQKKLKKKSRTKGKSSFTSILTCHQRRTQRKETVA
Sequence of Glutamate receptor 4 (Rattus norvegicus) (P19493 whole entry): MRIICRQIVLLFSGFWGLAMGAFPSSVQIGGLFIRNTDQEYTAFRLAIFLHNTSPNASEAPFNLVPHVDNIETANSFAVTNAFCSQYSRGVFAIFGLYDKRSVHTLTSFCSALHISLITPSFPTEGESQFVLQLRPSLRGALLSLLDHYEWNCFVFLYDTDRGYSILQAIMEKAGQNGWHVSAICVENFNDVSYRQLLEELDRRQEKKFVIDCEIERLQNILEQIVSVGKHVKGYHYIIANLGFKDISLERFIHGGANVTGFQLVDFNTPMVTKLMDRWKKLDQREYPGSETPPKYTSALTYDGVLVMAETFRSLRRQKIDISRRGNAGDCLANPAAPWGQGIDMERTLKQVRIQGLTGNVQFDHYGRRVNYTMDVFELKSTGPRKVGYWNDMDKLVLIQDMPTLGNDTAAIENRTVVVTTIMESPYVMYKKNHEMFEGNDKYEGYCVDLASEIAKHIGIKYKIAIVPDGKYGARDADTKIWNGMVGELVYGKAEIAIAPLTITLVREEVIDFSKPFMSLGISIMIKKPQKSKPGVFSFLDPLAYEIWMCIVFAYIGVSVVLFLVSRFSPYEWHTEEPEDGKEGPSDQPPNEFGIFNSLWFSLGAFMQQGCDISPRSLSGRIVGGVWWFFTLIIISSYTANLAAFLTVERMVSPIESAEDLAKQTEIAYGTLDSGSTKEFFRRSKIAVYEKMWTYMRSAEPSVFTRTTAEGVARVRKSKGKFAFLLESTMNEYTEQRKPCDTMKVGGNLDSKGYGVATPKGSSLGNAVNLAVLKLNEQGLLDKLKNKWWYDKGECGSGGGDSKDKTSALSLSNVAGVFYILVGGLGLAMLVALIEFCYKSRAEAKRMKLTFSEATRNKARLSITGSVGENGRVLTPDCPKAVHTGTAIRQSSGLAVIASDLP
T3 sequence (P19493 whole entry, canonical isoform): as the sequence (P19493 whole entry) above

A word on the Ki: it is the dissociation constant of the complex between target and ligand, obtained from inhibition or displacement. `CC(C)(C)c1o[nH]c(=O)c1C[C@H](N)C(=O)O`: the Ki on Glutamate receptor 2 [1] is 1.66 µM; on Glutamate receptor 4 [3], 2.14 µM; on Glutamate NMDA receptor [4] it was > 100 µM; on Glutamate receptor 3 [6] it was 2.04 µM; at Glutamate receptor 1 [8] it was 2.78 µM. In addition, the EC50 is 730 µM at Glutamate receptor 1 [2], > 1000 µM on Glutamate receptor 2 [5], 630 µM at Glutamate receptor 3 [7] (read-out: EC50) and 62 µM at Glutamate receptor 1 [9].
For orientation: IC50 means the point on the concentration scale where inhibition reaches its midpoint. High values mean lower potency, low ones higher potency. With `CC1CCC=C(C[C@H](N)C(=O)O)c2c(O)noc21` (mixture of isomers), the EC50 in test [10] is > 1000 µM; in test [11], 0.86 µM; on Glutamate receptor 1 [2], 70 µM; in test [14], > 1000 µM; in test [19], 0.24 µM; on Glutamate receptor 2 [5], 160 µM. For the same compound, the EC50 at Glutamate receptor 4 [21] (read-out: EC50) is 35 µM; at Glutamate receptor 4 [21] (read-out: pEC50 (converted)), 158 µM; at Glutamate receptor 3 [7] (read-out: EC50), 48 µM; on Glutamate receptor 3 [7] (read-out: pEC50 (converted)), 63.1 µM; on Glutamate receptor 1 [9], 70 µM. Also, the inhibitory constant (Ki) is 6.31 µM on Glutamate receptor 2 [1]; 2.2 µM at Glutamate receptor 4 [3]; 1.38 µM in [16]; 0.00508 µM in [18]; > 100 µM on Glutamate NMDA receptor [20]; 1.11 µM on Glutamate receptor 3 [6]. The Ki in test [23] was > 100 µM; at Glutamate receptor 1 [8] it was 1.55 µM. The Activity worked out at 68% in test [12], 46% in [15] and 29% in test [22]. Moreover, the IC50 worked out at 9.7 µM in test [13] and 8.3 µM in [17].
Turning to `CC(C)(C)c1onc(O)c1C[C@H](N)C(=O)O`, the Activity in test [12] was 102%; in [15], 100%; in test [22], 101%. In addition, the half-inhibitory concentration (IC50) in test [13] worked out at 1.8 µM; in [17], 23 µM. Besides, the EC50 on Glutamate receptor 4 [21] (hek293, read-out: EC50) was found to be 150 µM.
In the case of `N[C@@H](CC1=CCCCc2onc(O)c21)C(=O)O`, the Ki at Glutamate receptor 2 [1] was 0.175 µM; on Glutamate receptor 4 [3], 0.202 µM; on Glutamate NMDA receptor [20] it was > 100 µM; on Glutamate receptor 3 [6], 0.173 µM; on Glutamate receptor 1 [8] it was 0.232 µM. Besides, the values for the Activity in test [12], in test [15] and in test [22] were 79%, 54% and 28%, respectively. Moreover, the EC50 on Glutamate receptor 1 [2] came out at 32 µM; on Glutamate receptor 2 [5] it was 92 µM; at Glutamate receptor 4 [21] (read-out: EC50) it was 6.7 µM; on Glutamate receptor 3 [7] (read-out: EC50), 13 µM; on Glutamate receptor 1 [9], 4.5 µM. In addition, the IC50 was 0.28 µM in test [13] and 1.6 µM in test [17].
With `Cc1onc(O)c1C[C@H](N)C(=O)O` [(S)-AMPA], the IC50 in test [13] was 0.039 µM; in test [17] it was > 100 µM.
As for `C=C(C)[C@H]1CN[C@H](C(=O)O)[C@H]1CC(=O)O` [KAINIC ACID], the Activity in [12] was 55%; in test [15], 45%; in [22] it was 18%. The EC50 on Glutamate receptor 4 [21] (read-out: EC50) was determined as 47 µM.

Source of the values: ChEMBL document CHEMBL1151943, “The glutamate receptor GluR5 agonist (S)-2-amino-3-(3-hydroxy-7,8-dihydro-6H-cyclohepta[d]isoxazol-4-yl)propionic acid and the 8-methyl analogue: synthesis, molecular pharmacology, and biostructural characterization” (J Med Chem, 2009).
